Biological target: T1, SIRT1 (Homo sapiens, UniProt Q96EB6)
T1 sequence (Q96EB6 1-747): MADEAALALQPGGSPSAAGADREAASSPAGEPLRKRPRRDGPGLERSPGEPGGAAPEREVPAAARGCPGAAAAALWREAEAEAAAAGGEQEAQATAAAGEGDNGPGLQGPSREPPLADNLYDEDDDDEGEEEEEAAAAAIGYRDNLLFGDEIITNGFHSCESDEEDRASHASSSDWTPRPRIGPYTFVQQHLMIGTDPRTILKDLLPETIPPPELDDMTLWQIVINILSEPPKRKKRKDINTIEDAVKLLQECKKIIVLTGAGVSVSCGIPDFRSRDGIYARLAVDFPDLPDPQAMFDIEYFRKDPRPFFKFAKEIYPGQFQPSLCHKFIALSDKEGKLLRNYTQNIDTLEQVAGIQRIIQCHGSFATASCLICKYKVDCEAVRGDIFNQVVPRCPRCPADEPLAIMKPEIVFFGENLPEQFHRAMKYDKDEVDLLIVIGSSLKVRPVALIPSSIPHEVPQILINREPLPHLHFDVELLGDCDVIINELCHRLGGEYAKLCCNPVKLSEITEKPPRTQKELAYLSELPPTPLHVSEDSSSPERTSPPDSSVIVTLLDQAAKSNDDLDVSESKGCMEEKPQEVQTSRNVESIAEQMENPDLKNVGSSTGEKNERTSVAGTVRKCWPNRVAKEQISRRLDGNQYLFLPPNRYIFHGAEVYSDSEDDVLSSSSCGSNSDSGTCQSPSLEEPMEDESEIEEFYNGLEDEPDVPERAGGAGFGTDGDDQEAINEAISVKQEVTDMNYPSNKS
Assay: Mass spectrometry based assay to identify modulators of SIRT1 activity (deacetylation of p53-based acetylated peptide)
Type: biochemical
Conditions: 10 nM SIRT1, 0.5 μM peptide substrate, 120 μM βNAD+, 25 minutes at 25° C.; for EC1.5 μM: SIRT1 activation
Source text: A mass spectrometry based assay was used to identify modulators of SIRT1 activity. The mass spectrometry based assay utilizes a peptide having 20 amino acid residues as follows: Ac-EE-K(biotin)-GQSTSSHSK(Ac)NleSTEG-K(5TMR)-EE-NH2 (SEQ ID NO: 1) wherein K(Ac) is an acetylated lysine residue and Nle is a norleucine. The peptide is labeled with the fluorophore 5TMR (excitation 540 nm/emission 580 nm) at the C-terminus. The sequence of the peptide substrate is based on p53 with several modifications. In addition, the methionine residue naturally present in the sequence was replaced with the norleucine because the methionine may be susceptible to oxidation during synthesis and purification.
The mass spectrometry assay is conducted as follows: 0.5 μM peptide substrate and 120 μM βNAD^+ is incubated with 10 nM SIRT1 for 25 minutes at 25° C. in a reaction buffer (50 mM Tris-acetate pH 8, 137 mM NaCl, 2.7 mM KCl, 1 mM MgCl2, 5 mM DTT, 0.05% BSA). Test compounds may be added to the reaction as described above. […] After the 25 minute incubation with SIRT1, 10 μL of 10% formic acid is added to stop the reaction. Reactions are sealed and frozen for later mass spec analysis. Determination of the mass of the substrate peptide allows for precise determination of the degree of acetylation (i.e. starting material) as compared to deacetylated peptide (product).
A control for inhibition of sirtuin activity is conducted by adding 1 μL of 500 mM nicotinamide as a negative control at the start of the reaction (e.g., permits determination of maximum sirtuin inhibition). A control for activation of sirtuin activity is conducted using 10 nM of sirtuin protein, with 1 μL of DMSO in place of compound, to determine the amount of deacetylation of the substrate at a given timepoint within the linear range of the assay. This timepoint is the same as that used for test compounds and, within the linear range, the endpoint represents a change in velocity.
For the above assay, SIRT1 protein was expressed and purified as follows. […] The protein was expressed by induction with 1 mM IPTG as an N-terminal His-tag fusion protein at 18° C. overnight and harvested at 30,000×g. Cells were lysed with lysozyme in lysis buffer (50 mM Tris-HCl, 2 mM Tris[2-carboxyethyl]phosphine (TCEP), 10 μM ZnCl2, 200 mM NaCl) and further treated with sonication for 10 min for complete lysis. The protein was purified over a Ni-NTA column (Amersham) and fractions containing pure protein were pooled, concentrated and run over a sizing column (Sephadex S200 26/60 global). The peak containing soluble protein was collected and run on an Ion-exchange column (MonoQ). Gradient elution (200 mM-500 mM NaCl) yielded pure protein. This protein was concentrated and dialyzed against dialysis buffer (20 mM Tris-HCl, 2 mM TCEP) overnight. The protein was aliquoted and frozen at −80° C. until further use.
Sirtuin modulating compounds that activated SIRT1 were identified using the assay described above and are shown below in Tables 1 and 2. The EC1.5 values for the activating compounds are represented by A (EC1.5<1.0 μM), B (EC1.5 1-25 μM), C (EC1.5>25 μM). The percent maximum fold activation is represented by A (Fold activation>200%) or B (Fold Activation<200%).

SMILES | % Fold Act. (percent maximum fold activation) | EC1.5 μM
Cc1cc(NC(=O)c2cccc3c(=O)cc(-c4cccc(C(F)(F)F)c4)[nH]c23)n(C)n1 [Compound 407] | A (Fold activation>200%) | A (EC1.5<1.0 μM)
Cn1c(-c2ccccc2OC(F)F)nc2c(NC(=O)c3cnccn3)cccc2c1=O [Compound 312] | A (Fold activation>200%) | A (EC1.5<1.0 μM)
O=C(Nc1cccc2c(=O)[nH]c(-c3ccccc3C(F)F)nc12)c1cnccn1 [Compound 329] | A (Fold activation>200%) | A (EC1.5<1.0 μM)
Cn1c(-c2ccncc2)nc2c(NC(=O)c3cnccn3)cccc2c1=O [Compound 279] | B (Fold Activation<200%) | C (EC1.5>25 μM)
CC(C)n1c(-c2cccc(C(F)(F)F)c2)nc2c(NC(=O)c3cnccn3)cccc2c1=O [Compound 267] | A (Fold activation>200%) | A (EC1.5<1.0 μM)
Cn1c(-c2cccc(OC(F)F)c2)nc2c(NC(=O)c3cnccn3)cccc2c1=O [Compound 315] | A (Fold activation>200%) | A (EC1.5<1.0 μM)
O=C(Nc1cccc2c(=O)cc(-c3cccc(C(F)(F)F)c3)[nH]c12)c1cnccn1 [Compound 409, N-(4-oxo-2-(3-(trifluoromethyl)phenyl)-1,4-dihydroquinolin-8-yl)pyrazine-2-carboxamide] | A (Fold activation>200%) | A (EC1.5<1.0 μM)
O=C(Nc1cccnc1)c1cccc2c(=O)cc(-c3ccccc3OC(F)(F)F)[nH]c12 [Compound 439] | A (Fold activation>200%) | A (EC1.5<1.0 μM)
Cn1c(-c2ccncn2)nc2c(C(=O)Nc3ccccn3)cccc2c1=O [Compound 257] | B (Fold Activation<200%) | C (EC1.5>25 μM)
O=C(Nc1cccc2c(=O)[nH]c(-c3ccccc3OC(F)F)nc12)c1cnccn1 [Compound 313] | A (Fold activation>200%) | A (EC1.5<1.0 μM)
Cn1c(-c2ccccc2N2CCOCC2)nc2c(C(=O)Nc3ccccn3)cccc2c1=O [Compound 216] | B (Fold Activation<200%) | C (EC1.5>25 μM)
O=C(NC1CN2CCC1CC2)c1cccc2c(=O)cc(-c3cccc(C(F)(F)F)c3)[nH]c12 (centres unmarked) [Compound 414] | A (Fold activation>200%) | B (EC1.5 1-25 μM)
O=C(Nc1cccc2c(=O)cc(-c3ccccc3C(F)(F)F)[nH]c12)c1cnccn1 [Compound 445] | A (Fold activation>200%) | A (EC1.5<1.0 μM)

Other lines, results leading:

% Fold Act. (percent maximum fold activation) | EC1.5 μM | SMILES
B (Fold Activation<200%) | B (EC1.5 1-25 μM) | CN1CCCC1C(=O)Nc1cccc2c(=O)n(C)c(-c3cccc(C(F)(F)F)c3)nc12 (centres unmarked) [Compound 331]
A (Fold activation>200%) | B (EC1.5 1-25 μM) | Cn1c(-c2cccc(C(F)(F)F)c2)nc2c(C(=O)Nc3ccc(CN4CCOCC4)nc3)cccc2c1=O [Compound 301]
B (Fold Activation<200%) | C (EC1.5>25 μM) | Cn1c(-c2cccc(C(F)(F)F)c2)nc2c(NC(=O)c3cncnc3)cccc2c1=O [Compound 241]
B (Fold Activation<200%) | C (EC1.5>25 μM) | Cn1c(-c2ccc(OC(F)(F)F)cc2)nc2c(C(=O)Nc3ccccn3)cccc2c1=O [Compound 211]
A (Fold activation>200%) | B (EC1.5 1-25 μM) | Cn1cncc1C(=O)Nc1cccc2c(=O)n(C)c(-c3cccc(C(F)(F)F)c3)nc12 [Compound 236]
B (Fold Activation<200%) | B (EC1.5 1-25 μM) | Cn1ccc(C(=O)Nc2cccc3c(=O)n(C)c(-c4cccc(C(F)(F)F)c4)nc23)n1 [Compound 247]
A (Fold activation>200%) | A (EC1.5<1.0 μM) | Cn1c(-c2cccc(C(F)(F)F)c2)nc2c(NC(=O)c3ncccn3)cccc2c1=O [Compound 249]
A (Fold activation>200%) | A (EC1.5<1.0 μM) | Cn1c(-c2cccc(C(F)(F)F)c2)nc2c(C(=O)Nc3cccc(CN4CCCC4)n3)cccc2c1=O [Compound 351]
A (Fold activation>200%) | B (EC1.5 1-25 μM) | Cn1c(-c2ccc(N3CCOCC3)cc2)nc2c(C(=O)Nc3ccccn3)cccc2c1=O [Compound 217]
A (Fold activation>200%) | B (EC1.5 1-25 μM) | Cn1c(-c2cccc(C(F)(F)F)c2)nc2c(C(=O)Nc3ncc(CN4CCCC4)s3)cccc2c1=O [Compound 358]
A (Fold activation>200%) | A (EC1.5<1.0 μM) | Cn1c(-c2cccc(C(F)(F)F)c2)nc2c(C(=O)Nc3cccc(CN4CC[C@H](F)C4)n3)cccc2c1=O [Compound 352]
B (Fold Activation<200%) | C (EC1.5>25 μM) | CN1C(=O)CCC1C(=O)Nc1cccc2c(=O)n(C)c(-c3cccc(C(F)(F)F)c3)nc12 (centres unmarked) [Compound 340]
A (Fold activation>200%) | A (EC1.5<1.0 μM) | Cn1c(-c2cccc(C(F)(F)F)c2)nc2c(NC(=O)c3cccc(CN4CCCC4)n3)cccc2c1=O [Compound 333]
A (Fold activation>200%) | A (EC1.5<1.0 μM) | Cn1c(-c2cccc(C(F)(F)F)c2)nc2c(C(=O)Nc3cccc(CN4CCOCC4)c3)cccc2c1=O [Compound 302]
B (Fold Activation<200%) | C (EC1.5>25 μM) | Cn1c(-c2cccc(C(F)(F)F)c2)nc2c(NC(=O)C3CCC(=O)N3)cccc2c1=O (centres unmarked) [Compound 339, N-(3-methyl-4-oxo-2-(3-(trifluoromethyl)phenyl)-3,4-dihydroquinazolin-8-yl)-5-oxopyrrolidine-2-carboxamide]
B (Fold Activation<200%) | C (EC1.5>25 μM) | Cn1c(-c2ccc(Cl)cc2)nc2c(C(=O)Nc3ccccn3)cccc2c1=O [Compound 244]
B (Fold Activation<200%) | C (EC1.5>25 μM) | CCCn1c(-c2cccc(C(F)(F)F)c2)nc2c(C(=O)Nc3ccccn3)cccc2c1=O [Compound 270]
A (Fold activation>200%) | B (EC1.5 1-25 μM) | Cn1c(-c2cccc(C(F)(F)F)c2)nc2c(NC(=O)C3CCCC(=O)N3)cccc2c1=O (centres unmarked) [Compound 365]

Reference: patent publication US9326986B2, “Quinazolinone, quinolone and related analogs as sirtuin modulators” (GLAXOSMITHKLINE LLC, priority 2008, dated 2016)
